# System: tomato early blight fungi (Alternaria solani; QoI resistant strain, cytochrome b phenylalanine 129 mutated to leucine)
# Assay type: in vivo
# Settings: 200 ppm foliar spray, inoculation after 1 day; tomato cv PATIO
smiles,measurement,value
CCC(=NN=C(C)c1ccc2ccccc2c1)OCc1c(C)cccc1-n1nnn(C)c1=O [cf1],lesion area compared to the lesion area in an untreated tomato,≥ 70%

# — patent publication US11225470B2, “Tetrazolinone compounds and its use as pest control agents” (SUMITOMO CHEMICAL COMPANY, LIMITED, priority 2016, dated 2022)
